Test results taken from ChEMBL document CHEMBL1158220, “New prenylated quinones from Peperomia galioides” (J Nat Prod, 1996).
The source made the active and inactive calls. The rule behind the calls is not given here.

How the values were obtained:
Assay type in all cases: functional, organism-based
Leishmania donovani [1] = test: Antiparasitic activity against Leishmania donovani at 25 ug/mL
Leishmania braziliensis [2] = test: Antiparasitic activity against Leishmania braziliensis at 25 ug/mL
Leishmania amazonensis [3] = test: Antiparasitic activity against Leishmania amazonensis assessed as lysis of parasite at 100 ug/mL
Leishmania donovani [4] = test: Antiparasitic activity against Leishmania donovani assessed as lysis of parasite at 100 ug/mL
Trypanosoma cruzi [5] = test: Antiparasitic activity against Trypanosoma cruzi Y trypomastigotes assessed as lysis of parasite after 24 hrs
Leishmania braziliensis [6] = test: Antiparasitic activity against Leishmania braziliensis assessed as lysis of parasite at 100 ug/mL
Leishmania amazonensis [7] = test: Antiparasitic activity against Leishmania amazonensis at 25 ug/mL
Leishmania amazonensis [8] = test: Antiparasitic activity against Leishmania amazonensis assessed as lysis of parasite at 5 ug/mL
Leishmania braziliensis [9] = test: Antiparasitic activity against Leishmania braziliensis assessed as lysis of parasite at 5 ug/mL
Leishmania donovani [10] = test: Antiparasitic activity against Leishmania donovani assessed as lysis of parasite at 5 ug/mL
Trypanosoma cruzi [11] = test: Antiparasitic activity against Trypanosoma cruzi Y trypomastigotes assessed as lysis of parasite at 250 ug/mL after 24 hrs

| Compound | Activity (Leishmania amazonensis [3]) | Activity (Leishmania donovani [4]) | Activity (Trypanosoma cruzi [5]) | Activity (Leishmania braziliensis [6]) | other results |
| --- | --- | --- | --- | --- | --- |
| CC(C)=CCC/C(C)=C/CC1=C(O)C(=O)C(C)(CC=C(C)C)CC1=O (stereo not given) | Active | Active | inactive | Active | Activity (Leishmania donovani [1]): Active; Activity (Leishmania braziliensis [2]): Active; Activity (Leishmania amazonensis [7]): Active |
| N=C(N)c1ccc(OCCCCCOc2ccc(C(=N)N)cc2)cc1 |  |  |  |  | Activity (Leishmania amazonensis [8]): Active; Activity (Leishmania braziliensis [9]): Active; Activity (Leishmania donovani [10]): Active |
| CN(C)c1ccc(C(=C2C=CC(=[N+](C)C)C=C2)c2ccc(N(C)C)cc2)cc1 |  |  |  |  | Activity (Trypanosoma cruzi [11]): Active |
| MEGLUMINE ANTIMONATE | 40% | 40% |  | 40% |  |
| CC(C)=CCCC1(C)C=CC2=C(O1)C(=O)C(C)=C(CC=C(C)C)C2=O (stereo not given) |  |  | inactive |  |  |
